Reference: US3979508A, “Compositions and methods therewith for penicillin hypersensitivity detection” (Kremers-Urban Company, priority 1975, dated 1976)

System: penicillin hypersensitivity (patients)
Test: Comparison of skin tests with penicilloyl-poly-L-lysine and penicillin G (Table III)
Type: in vivo, human
Conditions: 1163 tested
Experimental: One of the uses for the conjugates of this invention is in skin testing for penicillin hypersensitivity. The conjugated compositions are prepared for skin testing by first dissolving the composition in buffered isotonic solutions, having a pH in the range from 7 to 8. For example, the conjugates prepared above may be diluted with aqueous solutions 0.15 M NaCl in 0.01 M phosphate, pH 7.6. In addition, other physiological salt solutions may be used.
Intradermal injections may be made of the foregoing solutions with a 26 guage needle, the volume injected may be generally about 0.01 to 0.03 cc. Alternatively, the conjugate may be applied by the scratch test technique. The development of a wheal at the injection site after about 20 minutes indicates a positive reaction, and penicillin hypersensitivity.
Penicillin hypersensitivity tests carried out with the conjugate compositions of this invention reflect the numerous advantages of penicillin hypersensitivity determinations made with such compositions. […] In Table II the distribution of skin reactions is shown by history of penicillin therapy and hypersensitivity. […] (See column 2, for example, showing the percentages of patients tested who had […] skin test.)

penicilloyl-poly-L-lysine [PPL]
POSITIVE SKIN TESTS %: 17.9%
Positive Skin Tests, Number of Patients: 209
